Legend:
[1] = Drug uptake in anesthetized cynomolgus monkey brain frontal lobe after 125 mins postinjection; type: ADME, organism-based, Macaca fascicularis; conditions: in vivo
[2] = Ratio of drug uptake in frontal lobe to cerebellum in anesthetized cynomolgus monkey after 35 mins postinjection; type: ADME, organism-based, Macaca fascicularis; conditions: in vivo
Thalamus [3] = assay: Drug uptake in anesthetized cynomolgus monkey brain thalamus after 207.5 mins postinjection; type: ADME, organism-based, Macaca fascicularis; conditions: in vivo
Putamen [4] = assay: Drug uptake in anesthetized cynomolgus monkey brain putamen after 95 mins postinjection; type: ADME, organism-based, Macaca fascicularis; design: unit not given here; conditions: in vivo
[5] = Drug uptake in anesthetized cynomolgus monkey brain occipital lobe after 125 mins postinjection; type: ADME, organism-based, Macaca fascicularis; conditions: in vivo
Pons [6] = assay: Drug uptake in anesthetized cynomolgus monkey brain pons after 35 mins postinjection; type: ADME, organism-based, Macaca fascicularis; conditions: in vivo
[7] = Ratio of drug uptake in occipital lobe to cerebellum in anesthetized cynomolgus monkey after 95 mins postinjection; type: ADME, organism-based, Macaca fascicularis; conditions: in vivo
Caudate [8] = assay: Drug uptake in anesthetized cynomolgus monkey brain caudate after 65 mins postinjection; type: ADME, organism-based, Macaca fascicularis, Caudate nucleus; conditions: in vivo
Pons [9] = assay: Drug uptake in anesthetized cynomolgus monkey brain pons after 85 mins postinjection; type: ADME, organism-based, Macaca fascicularis; conditions: in vivo
Caudate [10] = assay: Drug uptake in anesthetized cynomolgus monkey brain caudate after 145 mins postinjection; type: ADME, organism-based, Macaca fascicularis, Caudate nucleus; conditions: in vivo
Putamen [11] = assay: Drug uptake in anesthetized cynomolgus monkey brain putamen after 105 mins postinjection; type: ADME, organism-based, Macaca fascicularis; design: unit not given here; conditions: in vivo, 1.75 h
Medulla [12] = assay: Drug uptake in anesthetized cynomolgus monkey brain medulla after 15.5 mins postinjection; type: ADME, organism-based, Macaca fascicularis; conditions: in vivo
[13] = Ratio of drug uptake in medulla to cerebellum in anesthetized cynomolgus monkey after 9.5 mins postinjection; type: ADME, organism-based, Macaca fascicularis; conditions: in vivo
Midbrain [14] = assay: Drug uptake in anesthetized cynomolgus monkey brain midbrain after 45 mins postinjection; type: ADME, organism-based, Macaca fascicularis; design: unit not given here; conditions: in vivo, 0.75 h
Medulla [15] = assay: Drug uptake in anesthetized cynomolgus monkey brain medulla after 187.5 mins postinjection; type: ADME, organism-based, Macaca fascicularis; conditions: in vivo, 3.125 h
[16] = Ratio of drug uptake in putamen to cerebellum in anesthetized cynomolgus monkey after 45 mins postinjection; type: ADME, organism-based, Macaca fascicularis; conditions: in vivo, 0.75 h
[17] = Drug uptake in anesthetized cynomolgus monkey brain frontal lobe after 187.5 mins postinjection; type: ADME, organism-based, Macaca fascicularis; conditions: in vivo, 3.125 h
[18] = Drug uptake in anesthetized cynomolgus monkey brain frontal lobe after 105 mins postinjection; type: ADME, organism-based, Macaca fascicularis; conditions: in vivo, 1.75 h
Caudate [19] = assay: Drug uptake in anesthetized cynomolgus monkey brain caudate after 187.5 mins postinjection; type: ADME, organism-based, Macaca fascicularis, Caudate nucleus; conditions: in vivo, 3.125 h
Medulla [20] = assay: Drug uptake in anesthetized cynomolgus monkey brain medulla after 165 mins postinjection; type: ADME, organism-based, Macaca fascicularis; conditions: in vivo, 2.75 h
Putamen [21] = assay: Drug uptake in anesthetized cynomolgus monkey brain putamen after 22.5 mins postinjection; type: ADME, organism-based, Macaca fascicularis; design: unit not given here; conditions: in vivo, 0.375 h
Thalamus [22] = assay: Drug uptake in anesthetized cynomolgus monkey brain thalamus after 1.5 mins postinjection; type: ADME, organism-based, Macaca fascicularis; conditions: in vivo, 0.025 h
Pons [23] = assay: Drug uptake in anesthetized cynomolgus monkey brain pons after 145 mins postinjection; type: ADME, organism-based, Macaca fascicularis; conditions: in vivo
Pons [24] = assay: Drug uptake in anesthetized cynomolgus monkey brain pons after 9.5 mins postinjection; type: ADME, organism-based, Macaca fascicularis; conditions: in vivo
Medulla [25] = assay: Drug uptake in anesthetized cynomolgus monkey brain medulla after 207.5 mins postinjection; type: ADME, organism-based, Macaca fascicularis; conditions: in vivo
Midbrain [26] = assay: Drug uptake in anesthetized cynomolgus monkey brain midbrain after 9.5 mins postinjection; type: ADME, organism-based, Macaca fascicularis; design: unit not given here; conditions: in vivo
Midbrain [27] = assay: Drug uptake in anesthetized cynomolgus monkey brain midbrain after 2.5 mins postinjection; type: ADME, organism-based, Macaca fascicularis; design: unit not given here; conditions: in vivo
Pons [28] = assay: Drug uptake in anesthetized cynomolgus monkey brain pons after 27.5 mins postinjection; type: ADME, organism-based, Macaca fascicularis; conditions: in vivo
[29] = Ratio of drug uptake in caudate to cerebellum in anesthetized cynomolgus monkey after 9.5 mins postinjection; type: ADME, organism-based, Macaca fascicularis; conditions: in vivo
Putamen [30] = assay: Drug uptake in anesthetized cynomolgus monkey brain putamen after 187.5 mins postinjection; type: ADME, organism-based, Macaca fascicularis; conditions: in vivo, 3.125 h
Thalamus [31] = assay: Drug uptake in anesthetized cynomolgus monkey brain thalamus after 197.5 mins postinjection; type: ADME, organism-based, Macaca fascicularis; conditions: in vivo
[32] = Drug uptake in anesthetized cynomolgus monkey brain cerebellum after 95 mins postinjection; type: ADME, organism-based, Macaca fascicularis; conditions: in vivo
Midbrain [33] = assay: Drug uptake in anesthetized cynomolgus monkey brain midbrain after 202.5 mins postinjection; type: ADME, organism-based, Macaca fascicularis; conditions: in vivo, 3.375 h
[34] = Drug uptake in anesthetized cynomolgus monkey brain occipital lobe after 115 mins postinjection; type: ADME, organism-based, Macaca fascicularis; conditions: in vivo
Putamen [35] = assay: Drug uptake in anesthetized cynomolgus monkey brain putamen after 207.5 mins postinjection; type: ADME, organism-based, Macaca fascicularis; conditions: in vivo
[36] = Drug uptake in anesthetized cynomolgus monkey brain occipital lobe after 175 mins postinjection; type: ADME, organism-based, Macaca fascicularis; conditions: in vivo
[37] = Ratio of drug uptake in midbrain to cerebellum in anesthetized cynomolgus monkey after 18.5 mins postinjection; type: ADME, organism-based, Macaca fascicularis; conditions: in vivo
Medulla [38] = assay: Drug uptake in anesthetized cynomolgus monkey brain medulla after 95 mins postinjection; type: ADME, organism-based, Macaca fascicularis; conditions: in vivo
Putamen [39] = assay: Drug uptake in anesthetized cynomolgus monkey brain putamen after 6.5 mins postinjection; type: ADME, organism-based, Macaca fascicularis; design: unit not given here; conditions: in vivo
[40] = Ratio of drug uptake in thalamus to cerebellum in anesthetized cynomolgus monkey after 115 mins postinjection; type: ADME, organism-based, Macaca fascicularis; conditions: in vivo
Putamen [41] = assay: Drug uptake in anesthetized cynomolgus monkey brain putamen after 202.5 mins postinjection; type: ADME, organism-based, Macaca fascicularis; conditions: in vivo, 3.375 h
[42] = Drug uptake in anesthetized cynomolgus monkey brain occipital lobe after 35 mins postinjection; type: ADME, organism-based, Macaca fascicularis; conditions: in vivo
Midbrain [43] = assay: Drug uptake in anesthetized cynomolgus monkey brain midbrain after 192.5 mins postinjection; type: ADME, organism-based, Macaca fascicularis; conditions: in vivo
Pons [44] = assay: Drug uptake in anesthetized cynomolgus monkey brain pons after 65 mins postinjection; type: ADME, organism-based, Macaca fascicularis; conditions: in vivo
[45] = Ratio of drug uptake in midbrain to cerebellum in anesthetized cynomolgus monkey after 2.5 mins postinjection; type: ADME, organism-based, Macaca fascicularis; conditions: in vivo
Thalamus [46] = assay: Drug uptake in anesthetized cynomolgus monkey brain thalamus after 45 mins postinjection; type: ADME, organism-based, Macaca fascicularis; design: unit not given here; conditions: in vivo, 0.75 h
Pons [47] = assay: Drug uptake in anesthetized cynomolgus monkey brain pons after 95 mins postinjection; type: ADME, organism-based, Macaca fascicularis; conditions: in vivo
[48] = Drug uptake in anesthetized cynomolgus monkey brain frontal lobe after 55 mins postinjection; type: ADME, organism-based, Macaca fascicularis; conditions: in vivo
[49] = Ratio of drug uptake in medulla to cerebellum in anesthetized cynomolgus monkey after 0.5 mins postinjection; type: ADME, organism-based, Macaca fascicularis; conditions: in vivo
[50] = Ratio of drug uptake in putamen to cerebellum in anesthetized cynomolgus monkey after 165 mins postinjection; type: ADME, organism-based, Macaca fascicularis; conditions: in vivo, 2.75 h
Pons [51] = assay: Drug uptake in anesthetized cynomolgus monkey brain pons after 55 mins postinjection; type: ADME, organism-based, Macaca fascicularis; conditions: in vivo
[52] = Ratio of drug uptake in thalamus to cerebellum in anesthetized cynomolgus monkey after 135 mins postinjection; type: ADME, organism-based, Macaca fascicularis; conditions: in vivo, 2.25 h
Midbrain [53] = assay: Drug uptake in anesthetized cynomolgus monkey brain midbrain after 197.5 mins postinjection; type: ADME, organism-based, Macaca fascicularis; conditions: in vivo
[54] = Ratio of drug uptake in midbrain to cerebellum in anesthetized cynomolgus monkey after 215 mins postinjection; type: ADME, organism-based, Macaca fascicularis; conditions: in vivo

## O=C(OCCC[18F])C1C2CCC(CC1c1cccc(/C=C\Br)c1)N2 (centres undefined)
[1]
  Drug uptake: 2.93
[2]
  Ratio: 0.7
Thalamus [3]
  Drug uptake: 3.35
Putamen [4]
  Drug uptake: 5.28
[5]
  Drug uptake: 3.64
Pons [6]
  Drug uptake: 5.08
[7]
  Ratio: 1.1
Caudate [8]
  Drug uptake: 5.22
Pons [9]
  Drug uptake: 4.59
Caudate [10]
  Drug uptake: 4.38
Putamen [11]
  Drug uptake: 5.21
Medulla [12]
  Drug uptake: 5.77
[13]
  Ratio: 1
Midbrain [14]
  Drug uptake: 6.06
Medulla [15]
  Drug uptake: 4.04
[16]
  Ratio: 1.2
[17]
  Drug uptake: 2.39
[18]
  Drug uptake: 3.19
Caudate [19]
  Drug uptake: 3.83
Medulla [20]
  Drug uptake: 4.42
Putamen [21]
  Drug uptake: 5.81
Thalamus [22]
  Drug uptake: 0.34
Pons [23]
  Drug uptake: 4.35
Pons [24]
  Drug uptake: 4.14
Medulla [25]
  Drug uptake: 3.58
Midbrain [26]
  Drug uptake: 5.04
Midbrain [27]
  Drug uptake: 1.48
Pons [28]
  Drug uptake: 5.03
[29]
  Ratio: 0.7
Putamen [30]
  Drug uptake: 3.87
Thalamus [31]
  Drug uptake: 3.74
[32]
  Drug uptake: 3.81
Midbrain [33]
  Drug uptake: 4.46
[34]
  Drug uptake: 3.72
Putamen [35]
  Drug uptake: 3.65
[36]
  Drug uptake: 3.06
[37]
  Ratio: 0.9
Medulla [38]
  Drug uptake: 5.59
Putamen [39]
  Drug uptake: 4.42
[40]
  Ratio: 1.5
Putamen [41]
  Drug uptake: 3.82
[42]
  Drug uptake: 4.66
Midbrain [43]
  Drug uptake: 4.52
Pons [44]
  Drug uptake: 4.93
[45]
  Ratio: 1
Thalamus [46]
  Drug uptake: 5.49
Pons [47]
  Drug uptake: 4.68
[48]
  Drug uptake: 3.67
[49]
  Ratio: 2.4
[50]
  Ratio: 1.7
Pons [51]
  Drug uptake: 4.72
[52]
  Ratio: 1.6
Midbrain [53]
  Drug uptake: 4.54
[54]
  Ratio: 2.2
